# Results from patent US20200157144A1, “ANTIMICROBIAL PEPTIDOMIMETICS” (priority 2017, published 2020).
# Several values for one entry are separate records, joined by “and”; a condition that tells them apart may be missing. Equal entries are not always repeated. Where two headings read alike, the source gives them in different places.
# Assays:
# Assay in all cases: microbe, parasite or virus in culture
# [1] = system: S. aureus (ATCC BAA-1556); details: Staphylococcus aureus, ATCCBAA1556, 24 h, read-out: Mean MIC
# Experimental: S. aureus (BAA-1556) was from ATCC. Mupirocin (Cat # M2955) was purchased from TCI chemicals (India) Pvt. […] Ltd, India, Cation adjusted Mueller Hinton broth (CAMHB) and Mueller Hinton Agar (MHA) (Cat # M1657) were from HiMedia Laboratories Pvt. Ltd, India.
# The MIC assay was done based on CLSI guidelines in a microtitre plate format (1, 2). Preparation and dilution of Test Item (TI) stock solutions: A 1280 μg/ml stock of Compound 34 was prepared by dissolving 1.28 mg in 1.0 ml of sterile water to obtain the Master Stock (MS) solution. The MS solution was diluted 2-fold to obtain a series of Working Stock (WS) solutions (Table 7). The final concentration of solvent in the assay was 2.5% and the assay volume was […].
# Preparing the inoculum: One day before initiation of experiment, an isolated colony of S. aureus (ATCC BAA-1556) was inoculated into sterile CAMHB and incubated at 37° C. to exponential phase. After incubation, the turbidity was adjusted to that of a 0.5 McFarland Standard (approximately equivalent to 1.0×10^8 CFU/ml) and diluted to ˜1.0×10^6 CFU/ml.
# MIC Assay: The MIC assay was performed in a 96 well microtitre plate in a total assay volume of 100 μl (Table 7). Each well containing different concentrations of test compound (concentration range between 0.015625 and 16.0 μg/ml) was inoculated with 50 μl of bacterial suspension (prepared from the inoculum grown overnight and adjusted approximately to 5.0×10^5 CFU/ml) along with culture control (CC, culture in broth), broth control (BC, broth only), and vehicle control (VC, 2.5% solvent in broth plus culture). The plate was incubated at 37° C. for 24 hr and turbidity was measured spectrophotometrically (Absorbance microplate reader, BioTek® India, ELx800™) at 600 nm and visually. The experiment was done in duplicates. The inoculum was also plated for enumeration of bacteria. The MIC was defined as the lowest concentration of test compound that prevented bacterial growth (lack of turbidity by OD at 600 nm and visual inspection relative to no growth control).
# [2] = system: Mupirocin-resistant MRSA ATCC-BAA-1750 (USA200); assay type: cell-based, Staphylococcus aureus; details: Staphylococcus aureus
# Experimental: (§1) The MICs of test compounds were determined using the microdilution method from the Clinical and Laboratory Standards Institute (CLSI) guidelines (Clinical and Laboratory Standards Institute. Methods for dilution antimicrobial susceptibility tests for bacteria that grow aerobically; approved standard—ninth edition. Document M07-A9. Vol. 32 No. 2. Wayne, Pa.: CLSI; 2012). Briefly, bacteria were grown fresh from frozen stock in Mueller Hinton 2 (MH2) agar at 37° C. After an overnight incubation, 5 bacteria colonies were selected to grow in cation-adjusted MH2 broth in a shaking incubator (140 RPM) at 37° C. Cells were grown to an optical density (OD600) of 0.15-0.16 determined using a spectrophotometer (Molecular Devices Spectra Max Plus), which corresponds to ˜1×10^8 CFU/mL. Test compounds were constituted into 4 mM DMSO stock solutions and then subjected to 2-fold serial dilution in a 96-well plate with concentrations ranging from 100 to 0.195 μM in duplicates. […] of microbial culture containing ˜1×10^6 CFU/mL of microbes in the respective broths was introduced into each well containing 50 μL of compound solution. After an overnight incubation at 35° C., (220 RPM), OD600 measurements were conducted using the microplate spectrophotometer. The MIC was defined as the lowest antibiotic or compound concentration (μM) required to inhibit bacteria growth.
# (§2) The 11th well was used as the growth control well (medium with bacterial inoculums, no antibacterial) while the 12th well was the sterility control well (medium only).
# [3] = system: Mupirocin-susceptible MRSA ATCC-BAA-1756 (USA300); assay type: cell-based, Staphylococcus aureus; details: Staphylococcus aureus
# Experimental: as §1, §2
# [4] = system: Mupirocin-susceptible MRSA ATCC-700699 (VISA); assay type: cell-based, Staphylococcus aureus; details: Staphylococcus aureus
# Experimental: as §1, §2
# [5] = system: Mupirocin-susceptible MRSA ATCC-BAA-2762 (EMRSA15, ST22); assay type: cell-based, Staphylococcus aureus; details: Staphylococcus aureus
# Experimental: as §1, §2
# [6] = system: Mupirocin-resistant MRSA ATCC-BAA-1708; assay type: cell-based, Staphylococcus aureus; details: Staphylococcus aureus
# Experimental: as §1, §2
# [7] = system: Mupirocin-susceptible MRSA ATCC-BAA-1754 (ST45); assay type: cell-based, Staphylococcus aureus; details: Staphylococcus aureus
# Experimental: as §1, §2
# [8] = system: Mupirocin-susceptible MRSA ATCC-BAA-1681 (USA100); assay type: cell-based, Staphylococcus aureus; details: Staphylococcus aureus
# Experimental: as §1, §2
# [9] = system: Mupirocin-susceptible MRSA ATCC-33592 (ST239); assay type: cell-based, Staphylococcus aureus; details: Staphylococcus aureus
# Experimental: as §1, §2
# [10] = system: Mupirocin-susceptible MRSA ATCC-BAA-1707 (USA400); assay type: cell-based, Staphylococcus aureus; details: Staphylococcus aureus
# Experimental: as §1, §2
# [11] = system: Mupirocin-resistant MRSA ATCC-BAA-1556; assay type: cell-based, Staphylococcus aureus; details: Staphylococcus aureus
# Experimental: as §1, §2
# [12] = system: Staphylococcus aureus ATCC BAA-1717; assay type: cell-based; details: Staphylococcus aureus, ATCCBAA1717
# Experimental: (§3) The antibacterial potency of Compound 34 was measured using the in vitro broth microdilution assay under assay conditions described by the Clinical and Laboratory Standards Institute. […] The test substance was dissolved in 100% DMSO (unless stated below), suspended completely by sonication or vortexing, diluted by 2-fold serial titrations in the same vehicle, for a total of 10 test concentrations (final concentrations: 100, 50, 25, 12.5, 6.25, 3.125, 1.56, 0.78, 0.39, 0.2 μM). A 4 μL aliquot of each dilution was added to 196 μL of broth medium seeded with the organism suspension in wells of a 96 well plate (bacterial count: 2-8×10^5 colony forming units/mL final). The final volume was 200 μL in each well and the final DMSO concentration was 2 percent. The incubation time is either 1 or 2 days at 36° C. All strains tested underwent aerobic respiration, except for ATCC BAA-1805 and ATCC 29399. Following incubation, the test plates were visually examined and wells were scored for growth or complete growth inhibition to define the minimum inhibitory concentration. Each test substance was evaluated in duplicate and the results below are the duplicate test values.
# [13] = system: Staphylococcus epidermidis ATCC 12228; assay type: cell-based; details: Staphylococcus epidermidis, ATCC12228
# Experimental: as §3
# [14] = system: Staphylococcus aureus ATCC 19636; assay type: cell-based; details: Staphylococcus aureus, ATCC19636
# Experimental: as §3
# [15] = system: Propionibacterium acnes ATCC 29399; assay type: cell-based; details: Cutibacterium acnes, ATCC29399
# Experimental: as §3, with “values. Vehicle-control and an active reference agent were used as blank and positive controls, respectively.” for “values.”
# S. aureus ECL 2963646 = assay type: cell-based; details: Staphylococcus aureus, ECL2963646; S. aureus ECL 2963646; CAMHB II; read-out: MIC
# Experimental: (§4) The antibacterial potency of Compound 34 was measured using the in vitro broth microdilution assay under assay conditions described by the Clinical and Laboratory Standards Institute. […] The test substance was dissolved in 100% DMSO (unless stated below), suspended completely by sonication or vortexing, diluted by 2-fold serial titrations in the same vehicle, for a total of 11 test concentrations. A 4 μL aliquot of each dilution was added to 196 μL of broth medium seeded with the organism suspension in wells of a 96 well plate (bacterial count: 2-8×10^5 colony forming units/mL final). The final volume was 200 μL in each well and the final DMSO concentration was 2%. The incubation time is 1 day at 36° C. All strains tested underwent aerobic respiration. Following incubation, the test plates were visually examined and wells were scored for growth or complete growth inhibition to define the minimum inhibitory concentration. Each test substance was evaluated in duplicate and the results below are the duplicate test values. Vehicle-control and an active reference agent were used as blank and positive controls, respectively.
# S. aureus NARSA VRS1 = assay type: cell-based; details: Staphylococcus aureus; S. aureus NARSA VRS1; CAMHB II; read-out: MIC
# Experimental: as §4
# S. aureus NARSA VRS11b = assay type: cell-based; details: Staphylococcus aureus; S. aureus NARSA VRS11b; CAMHB II; read-out: MIC
# Experimental: as §4
# S. aureus NARSA VRS2 = assay type: cell-based; details: Staphylococcus aureus; S. aureus NARSA VRS2; CAMHB II; read-out: MIC
# Experimental: as §4
# S. aureus NARSA VRS3a = assay type: cell-based; details: Staphylococcus aureus; S. aureus NARSA VRS3a; CAMHB II; read-out: MIC
# Experimental: as §4
# [16] = system: Enterococcus faecium ATCC BAA-2320; assay type: cell-based; details: Enterococcus faecium, ATCCBAA2320
# Experimental: as §3, with “values. Vehicle-control and an active reference agent were used as blank and positive controls, respectively.” for “values.”
# [17] = system: Enterococcus faecalis ATCC 51299; assay type: cell-based; details: Enterococcus faecalis, ATCC51299
# Experimental: as §3, with “values. Vehicle-control and an active reference agent were used as blank and positive controls, respectively.” for “values.”
# [18] = Mupirocin-susceptible MRSA ATCC-700699 (VISA), read-out: MIC
SMILES,MIC [1],"MIC [4, 18]",MIC [2],MIC [3],MIC [5],MIC [6],MIC [7],MIC [8],MIC [9],MIC [10],MIC [11],also measured
C/C(=C\C(=O)OCCCCCCCCC(=O)O)C[C@@H]1OC[C@H](C[C@@H]2O[C@H]2[C@@H](C)[C@H](C)O)[C@@H](O)[C@H]1O [Mupirocin],> 16 µg/mL and > 32 µM,≤ 0.2 µM,–,–,–,–,–,–,–,–,–,"MIC ([2]; Mupirocin-resistant MRSA ATCC-BAA-1750 (USA200), read-out: MIC): 25 µM; MIC ([3]; Mupirocin-susceptible MRSA ATCC-BAA-1756 (USA300), read-out: MIC): ≤ 0.2 µM; MIC ([5]; Mupirocin-susceptible MRSA ATCC-BAA-2762 (EMRSA15, ST22), read-out: MIC): ≤ 0.2 µM; MIC ([6]; Mupirocin-resistant MRSA ATCC-BAA-1708, read-out: MIC): > 100 µM; MIC ([7]; Mupirocin-susceptible MRSA ATCC-BAA-1754 (ST45), read-out: MIC): ≤ 0.2 µM; MIC ([8]; Mupirocin-susceptible MRSA ATCC-BAA-1681 (USA100), read-out: MIC): ≤ 0.2 µM; MIC ([9]; Mupirocin-susceptible MRSA ATCC-33592 (ST239), read-out: MIC): ≤ 0.2 µM; MIC ([10]; Mupirocin-susceptible MRSA ATCC-BAA-1707 (USA400), read-out: MIC): ≤ 0.2 µM; MIC ([11]; Mupirocin-resistant MRSA ATCC-BAA-1556, cation-adjusted MH2 broth, overnight 35° C., OD600, read-out: MIC): > 100 µM"
CN[C@H](CC(C)C)C(=O)N[C@H]1C(=O)N[C@@H](CC(N)=O)C(=O)N[C@H]2C(=O)N[C@H]3C(=O)N[C@H](C(=O)N[C@H](C(=O)O)c4cc(O)cc(O)c4-c4cc3ccc4O)[C@H](O)c3ccc(c(Cl)c3)Oc3cc2cc(c3O[C@@H]2O[C@H](CO)[C@@H](O)[C@H](O)[C@H]2O[C@H]2C[C@](C)(N)[C@H](O)[C@H](C)O2)Oc2ccc(cc2Cl)[C@H]1O [Vancomycin],–,–,0.78 µM,0.78 µM,0.78 µM,0.78 µM,0.78 µM,1.56 µM,0.78 µM,0.78 µM,0.78 µM,MIC [12]: 1 µg/mL; MIC [13]: 1 µg/mL; MIC [14]: 1 µg/mL; MIC [4]: 6.25 µM; MIC [15]: 0.5 µg/mL and 0.35 µM
CC(=O)NC[C@H]1CN(c2ccc(N3CCOCC3)c(F)c2)C(=O)O1 [Linezolid],1 µg/mL and 2.96 µM,3.12 µM,6.25 µM,6.25 µM,6.25 µM,6.25 µM,6.25 µM,6.25 µM,6.25 µM,6.25 µM,6.25 µM,MIC (S. aureus ECL 2963646): 2 µg/mL and 5.93 µM; MIC (S. aureus NARSA VRS1): 2 µg/mL and 5.93 µM; MIC (S. aureus NARSA VRS11b): 2 µg/mL and 5.93 µM; MIC (S. aureus NARSA VRS2): 2 µg/mL and 5.93 µM; MIC (S. aureus NARSA VRS3a): 4 µg/mL and 11.9 µM
CN(C)c1cc(NC(=O)CNC(C)(C)C)c(O)c2c1C[C@H]1C[C@H]3[C@H](N(C)C)C(O)=C(C(N)=O)C(=O)[C@@]3(O)C(O)=C1C2=O [Tigecycline],–,–,–,–,–,–,–,–,–,–,–,MIC [16]: 0.063 µg/mL and 0.11 µM; MIC [17]: 0.063 µg/mL and 0.11 µM
